The target of assay [1] is T1, Na/K-ATPase α1 (Homo sapiens, UniProt P05023). As to the kind of experiment: Na/K-ATPase α1 expression by Western blot, DU145 cells. The format is cell-based. Details: endogenous in cells; host or cells: BT20, DU145, MDA-MB-435s. The note with it: ouabain 24 h or 72 h exposure. Background: In western blotting, separated proteins are transferred to a membrane and probed.

The test system of another assay is Akt. Nature of the assay: Akt phosphorylation (pAkt) by Western blot, BT20 cells. Format: cell-based, human. As to conditions: ouabain 15 min.
Another assay concerns Na/K-ATPase α1 mRNA. As to the kind of experiment: Na/K-ATPase α1 mRNA by RT-PCR, LLC-PK1 cells. The format is cell-based, pig. As to conditions: 10 nM ouabain, 24 h. As to the method: Total RNA was extracted and applied for RT-PCR to probe Na/K-ATPase α1 as described in the Experimental Procedures section.
Quantitative RT-PCR: The cells were seeded in 6-cm dishes and serum-starved for 24 h after the confluence reached 90%. […] Total RNA was extracted using TRIzol and subjected to quantitative RT-PCR analysis. The assays were performed on the AB 7500 real time PCR system with the following protocol: 1 cycle (6 min at 95° C.), 40 cycles (30 s at 95° C., 30 s at 52° C., 30 s at 72° C., and 1 min at 85° C.), followed by a dissociation stage to ensure a single product. The reactions are in a total volume of 25 μl, including 1.25 µl of Sybr Green (Invitrogen), 0.125 µl of DNA polymerase (Denville), 2.5 µl of dNTP (Invitrogen), 10 ng of cDNA. Primer pairs were used at 5 μM concentration, and the sequences are:
The relative Na/K-ATPase al gene expression was calculated by comparative threshold (CT) method (ΔΔCT). To normalize the difference amounts of cDNA, GAPDH was used as an internal control.

Assay [2] has as its target T1, Na/K-ATPase α1. Nature of the assay: Na/K-ATPase α1 expression by Western blot, BT20 cells. Format: cell-based. Details: endogenous in cells; host or cells: BT20, DU145, MDA-MB-435s.

The structures appear in SMILES notation.

As to `C[C@@H]1O[C@@H](O[C@H]2C[C@@H](O)[C@]3(CO)[C@H]4[C@H](O)C[C@]5(C)[C@@H](C6=CC(=O)OC6)CC[C@]5(O)[C@@H]4CC[C@]3(O)C2)[C@H](O)[C@H](O)[C@H]1O` [ouabain], the “cellular amount of Na/K-ATPase α1” value is given as “reduced the cellular amount of α1” at Na/K-ATPase α1 [1] and “reduced the cellular amount of α1” at Na/K-ATPase α1 [2] (BT20 cells, ouabain 24 h or 72 h exposure). For the same compound, the Akt phosphorylation result with Akt is “failed to do so”. Besides, the “levels of α1 mRNA” value in the assay with Na/K-ATPase α1 mRNA was “no effect on levels of α1 mRNA”. On Na/K-ATPase α1 [2] (BT-20 cells, after 72 h of ouabain exposure), the “Na/K-ATPase α1 expression, 72 h versus 24 h” value was “further reduction in al expression”.
